This note sets out measurements from patent publication US12258327B2, “5-membered heteroaryl-containing aminopyridine compounds as EGFR inhibitors” (YUHAN CORPORATION, priority 2021, dated 2025).

For assay [1], the target named is EGFR wildtype (WT) (Homo sapiens, UniProt P00533). Put plainly: Biochemical EGFR kinase assay (Lance Ultra TR-FRET), wildtype. Put shortly:
(§1)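 Kinase activity is measured by TR-FRET phosphopeptide detection. Compounds span 0.003 μM to 10 μM; the 1 h reaction at room temperature is quenched with EDTA, then labelled antibody (2 nM) is incubated 60 min before reading.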

Assay [2] addresses EGFR del19/C797S (Homo sapiens, UniProt P00533, C797S/DEL746-750). Put plainly: Biochemical EGFR kinase assay (Lance Ultra TR-FRET), double mutant del19/C797S. In a few lines:
as §1

Assay [3] has as its target EGFR del19/T790M/C797S (Homo sapiens, UniProt P00533, C797S/DEL746-750/T790M). The assay is described as follows: Biochemical EGFR kinase assay (Lance Ultra TR-FRET), triple mutant del19/T790M/C797S. In a few lines: as §1
The target of assay [4] is EGFR L858R/C797S (Homo sapiens, UniProt P00533, C797S/L858R). Put plainly: Biochemical EGFR kinase assay (Lance Ultra TR-FRET), double mutant L858R/C797S. Put shortly:
as §1

Assay [5] addresses EGFR L858R/T790M/C797S (Homo sapiens, UniProt P00533, C797S/L858R/T790M). The assay is described as follows: Biochemical EGFR kinase assay (Lance Ultra TR-FRET), triple mutant L858R/T790M/C797S. In a few lines:
as §1

Setting [6] is: IC50 WT (nM) 100 μM ATP, 100 μM ATP.
[7] abbreviates: Km ATP, read-out: IC50 WT (nM) Km ATP.
Setting [8] is: IC50 del19/C797S (nM) 100 μM ATP, 100 μM ATP.
Where [9] appears, read: Km ATP, read-out: IC50 del19/C797S (nM) Km ATP.
[10] abbreviates: IC50 del19/T790M/C797S (nM) 100 μM ATP, 100 μM ATP.
[11] abbreviates: Km ATP, read-out: IC50 del19/T790M/C797S (nM) Km ATP.
[12] abbreviates: IC50 L858R/C797S (nM) 100 μM ATP, 100 μM ATP.
Where [13] appears, read: Km ATP, read-out: IC50 L858R/C797S (nM) Km ATP.
[14] abbreviates: IC50 L858R/T790M/C797S (nM) 100 μM ATP, 100 μM ATP.
[15] abbreviates: Km ATP, read-out: IC50 L858R/T790M/C797S (nM) Km ATP.
The mark [16] stands for this setting: Km ATP, read-out: IC50 WT, Km ATP.
The mark [17] stands for this setting: Km ATP, read-out: IC50 del19/C797S, Km ATP.
The mark [18] stands for this setting: Km ATP, read-out: IC50 del19/T790M/C797S, Km ATP.
Setting [19] is: Km ATP, read-out: IC50 L858R/C797S, Km ATP.
Where [20] appears, read: Km ATP, read-out: IC50 L858R/T790M/C797S, Km ATP.

Like-named read-outs stand apart in the source and are kept apart here.

EGFR wildtype (WT), sequence (P00533 25-1210): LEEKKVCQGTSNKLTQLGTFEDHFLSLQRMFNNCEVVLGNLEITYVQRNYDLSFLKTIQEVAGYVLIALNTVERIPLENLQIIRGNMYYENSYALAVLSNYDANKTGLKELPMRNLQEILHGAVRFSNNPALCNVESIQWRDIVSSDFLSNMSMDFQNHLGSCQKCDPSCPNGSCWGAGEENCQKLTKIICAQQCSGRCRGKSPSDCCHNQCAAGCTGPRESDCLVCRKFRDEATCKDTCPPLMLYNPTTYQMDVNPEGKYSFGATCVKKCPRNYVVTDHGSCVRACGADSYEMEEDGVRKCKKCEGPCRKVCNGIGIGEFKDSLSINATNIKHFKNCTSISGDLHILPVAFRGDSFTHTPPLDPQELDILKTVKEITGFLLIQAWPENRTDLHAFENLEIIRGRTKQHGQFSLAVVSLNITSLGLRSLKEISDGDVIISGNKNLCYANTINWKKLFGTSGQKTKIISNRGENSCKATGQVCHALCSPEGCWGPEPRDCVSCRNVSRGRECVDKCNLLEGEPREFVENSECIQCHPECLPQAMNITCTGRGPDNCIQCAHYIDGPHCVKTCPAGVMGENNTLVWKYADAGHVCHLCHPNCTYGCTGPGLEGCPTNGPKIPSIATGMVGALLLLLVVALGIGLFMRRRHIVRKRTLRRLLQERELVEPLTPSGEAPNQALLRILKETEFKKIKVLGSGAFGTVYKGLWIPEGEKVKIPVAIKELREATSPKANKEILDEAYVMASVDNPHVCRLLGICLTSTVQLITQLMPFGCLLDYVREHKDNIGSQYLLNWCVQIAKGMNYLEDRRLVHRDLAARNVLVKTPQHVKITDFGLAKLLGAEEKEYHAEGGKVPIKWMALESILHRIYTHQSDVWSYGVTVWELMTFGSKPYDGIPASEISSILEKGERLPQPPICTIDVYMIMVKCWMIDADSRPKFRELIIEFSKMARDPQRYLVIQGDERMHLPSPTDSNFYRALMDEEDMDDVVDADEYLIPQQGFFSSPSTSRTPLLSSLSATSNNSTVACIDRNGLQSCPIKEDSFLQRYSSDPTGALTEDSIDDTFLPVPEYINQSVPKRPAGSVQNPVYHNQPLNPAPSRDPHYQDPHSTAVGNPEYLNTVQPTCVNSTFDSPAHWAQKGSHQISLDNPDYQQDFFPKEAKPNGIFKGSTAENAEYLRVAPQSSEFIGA
EGFR L858R/T790M/C797S, sequence (P00533 25-1210 T790M/C797S/L858R): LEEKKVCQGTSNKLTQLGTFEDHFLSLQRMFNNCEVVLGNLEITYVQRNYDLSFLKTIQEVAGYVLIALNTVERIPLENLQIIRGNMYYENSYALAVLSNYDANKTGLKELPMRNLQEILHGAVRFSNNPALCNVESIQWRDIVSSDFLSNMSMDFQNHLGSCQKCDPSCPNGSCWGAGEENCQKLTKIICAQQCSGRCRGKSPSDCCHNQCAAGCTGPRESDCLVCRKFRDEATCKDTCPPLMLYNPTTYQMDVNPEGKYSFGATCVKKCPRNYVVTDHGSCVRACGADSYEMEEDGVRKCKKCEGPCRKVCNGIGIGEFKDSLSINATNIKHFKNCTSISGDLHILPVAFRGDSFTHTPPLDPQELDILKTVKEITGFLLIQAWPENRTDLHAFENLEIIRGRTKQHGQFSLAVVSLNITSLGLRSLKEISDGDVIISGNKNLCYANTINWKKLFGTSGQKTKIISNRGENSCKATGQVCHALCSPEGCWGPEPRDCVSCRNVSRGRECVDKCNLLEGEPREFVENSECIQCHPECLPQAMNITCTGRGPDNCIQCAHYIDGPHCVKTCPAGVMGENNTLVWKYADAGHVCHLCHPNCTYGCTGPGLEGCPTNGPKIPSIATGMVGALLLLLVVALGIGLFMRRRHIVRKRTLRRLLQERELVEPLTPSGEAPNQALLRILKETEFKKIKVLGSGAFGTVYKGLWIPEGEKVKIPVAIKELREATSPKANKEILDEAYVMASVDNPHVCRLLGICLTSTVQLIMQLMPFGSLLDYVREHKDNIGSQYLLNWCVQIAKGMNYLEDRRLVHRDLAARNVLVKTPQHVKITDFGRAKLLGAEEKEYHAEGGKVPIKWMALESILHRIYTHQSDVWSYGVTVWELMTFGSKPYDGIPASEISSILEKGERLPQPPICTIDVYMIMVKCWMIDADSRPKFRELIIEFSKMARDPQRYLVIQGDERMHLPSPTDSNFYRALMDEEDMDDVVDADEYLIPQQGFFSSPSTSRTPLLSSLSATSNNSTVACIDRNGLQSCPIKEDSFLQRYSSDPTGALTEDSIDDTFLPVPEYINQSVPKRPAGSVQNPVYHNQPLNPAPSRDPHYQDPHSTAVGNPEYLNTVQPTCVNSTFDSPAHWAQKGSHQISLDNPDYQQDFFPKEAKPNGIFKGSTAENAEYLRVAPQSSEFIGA
EGFR del19/C797S, sequence (P00533 with tags, fused parts or gaps DEL746-750/C797S): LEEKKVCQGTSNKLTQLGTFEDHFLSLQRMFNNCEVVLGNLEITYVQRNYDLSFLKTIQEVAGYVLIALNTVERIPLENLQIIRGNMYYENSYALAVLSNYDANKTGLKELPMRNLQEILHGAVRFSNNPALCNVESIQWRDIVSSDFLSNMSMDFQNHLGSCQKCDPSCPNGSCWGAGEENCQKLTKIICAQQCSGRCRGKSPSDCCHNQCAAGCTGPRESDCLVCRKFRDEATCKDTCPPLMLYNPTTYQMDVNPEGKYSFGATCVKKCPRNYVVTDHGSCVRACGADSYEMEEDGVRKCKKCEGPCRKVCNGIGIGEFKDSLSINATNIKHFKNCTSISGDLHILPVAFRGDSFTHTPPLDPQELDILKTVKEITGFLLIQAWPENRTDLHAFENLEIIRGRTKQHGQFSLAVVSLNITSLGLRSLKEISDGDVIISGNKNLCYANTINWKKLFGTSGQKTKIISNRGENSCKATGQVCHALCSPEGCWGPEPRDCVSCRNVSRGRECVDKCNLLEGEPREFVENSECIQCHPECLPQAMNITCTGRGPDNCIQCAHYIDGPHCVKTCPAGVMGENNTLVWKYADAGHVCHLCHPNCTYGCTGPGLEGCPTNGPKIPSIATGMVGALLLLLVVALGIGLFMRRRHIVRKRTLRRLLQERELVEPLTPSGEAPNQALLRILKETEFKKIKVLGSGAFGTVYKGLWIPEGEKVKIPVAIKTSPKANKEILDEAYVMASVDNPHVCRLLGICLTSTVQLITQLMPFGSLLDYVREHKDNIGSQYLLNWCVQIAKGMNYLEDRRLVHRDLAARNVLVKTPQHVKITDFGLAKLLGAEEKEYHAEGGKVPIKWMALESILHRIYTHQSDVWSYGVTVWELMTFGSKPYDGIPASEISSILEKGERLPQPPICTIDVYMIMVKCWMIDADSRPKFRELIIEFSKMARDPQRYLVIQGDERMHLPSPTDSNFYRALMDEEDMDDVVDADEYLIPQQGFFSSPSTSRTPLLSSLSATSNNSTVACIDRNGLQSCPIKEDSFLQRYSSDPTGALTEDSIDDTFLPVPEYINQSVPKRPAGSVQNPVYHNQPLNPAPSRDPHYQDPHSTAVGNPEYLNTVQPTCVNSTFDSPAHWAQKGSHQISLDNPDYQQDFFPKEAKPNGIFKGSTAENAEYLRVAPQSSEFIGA
EGFR L858R/C797S, sequence (P00533 25-1210 C797S/L858R): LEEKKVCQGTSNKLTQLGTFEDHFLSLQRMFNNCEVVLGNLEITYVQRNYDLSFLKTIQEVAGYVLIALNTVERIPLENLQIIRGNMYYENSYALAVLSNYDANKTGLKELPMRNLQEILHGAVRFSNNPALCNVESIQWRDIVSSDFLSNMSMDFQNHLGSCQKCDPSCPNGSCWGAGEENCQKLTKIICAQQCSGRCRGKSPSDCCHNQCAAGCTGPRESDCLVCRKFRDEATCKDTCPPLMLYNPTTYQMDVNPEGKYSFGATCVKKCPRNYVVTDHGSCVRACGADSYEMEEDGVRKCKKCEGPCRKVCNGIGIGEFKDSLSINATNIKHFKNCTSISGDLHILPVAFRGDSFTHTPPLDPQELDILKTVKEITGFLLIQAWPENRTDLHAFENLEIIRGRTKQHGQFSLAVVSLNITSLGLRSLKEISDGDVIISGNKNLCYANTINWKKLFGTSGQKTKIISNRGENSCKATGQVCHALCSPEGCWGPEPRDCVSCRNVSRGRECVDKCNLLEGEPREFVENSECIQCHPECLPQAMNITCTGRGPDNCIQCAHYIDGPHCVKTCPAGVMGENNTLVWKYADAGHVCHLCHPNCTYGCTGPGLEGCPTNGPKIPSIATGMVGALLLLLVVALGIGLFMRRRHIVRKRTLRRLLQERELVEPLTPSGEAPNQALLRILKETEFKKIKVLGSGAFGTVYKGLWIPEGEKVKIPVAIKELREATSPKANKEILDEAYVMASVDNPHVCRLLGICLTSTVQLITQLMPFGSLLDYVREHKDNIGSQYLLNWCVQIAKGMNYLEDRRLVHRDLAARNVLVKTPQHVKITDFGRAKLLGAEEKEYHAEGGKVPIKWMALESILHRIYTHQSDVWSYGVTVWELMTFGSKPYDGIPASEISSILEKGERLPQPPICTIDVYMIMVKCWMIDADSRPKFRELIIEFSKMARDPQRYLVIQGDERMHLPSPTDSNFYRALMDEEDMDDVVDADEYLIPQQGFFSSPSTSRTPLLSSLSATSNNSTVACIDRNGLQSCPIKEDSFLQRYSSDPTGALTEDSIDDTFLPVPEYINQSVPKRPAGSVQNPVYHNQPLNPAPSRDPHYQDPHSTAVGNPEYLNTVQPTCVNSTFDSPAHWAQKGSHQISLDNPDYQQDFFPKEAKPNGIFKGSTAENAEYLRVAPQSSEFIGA

In the case of `O=S(=O)(C1CC1)n1cc(-c2nccc(Nc3cc(OC4CCC(OC(F)F)CC4)c(-c4cnn(C(F)F)c4)cn3)n2)cn1` (stereo not shown) [Example 70, 2-(1-(Cyclopropylsulfonyl)-1H-pyrazol-4-yl)-N-(4-((4-(difluoromethoxy)cyclohexyl)oxy)-5-(1-(difluoromethyl)-1H-pyrazol-4-yl)pyridin-2-yl)pyrimidin-4-amine], the IC50 in assay [1] (setting [6]) was more than 10000 nM; in assay [1] (setting [7]) it was 1740 nM; in assay [2] (setting [8]), 190 nM; in assay [2] (setting [9]), 202 nM; in assay [3] (setting [10]) it was 9.7 nM; in assay [3] (setting [11]) it was 10.2 nM. The IC50 in assay [4] (setting [12]) stood at 1490 nM; in assay [4] (setting [13]) it was 57 nM; in assay [5] (setting [14]) it was 13.5 nM; in assay [5] (setting [15]), 3.8 nM.

For the compound `CN(C)CC1(C)CCC(Nc2cc(Nc3ccnc(-c4cnn(S(=O)(=O)C5CC5)c4)n3)ncc2-c2ccn(C)n2)CC1` (stereo not shown) [Example 238, N^2-(2-(1-(Cyclopropylsulfonyl)-1H-pyrazol-4-yl)pyrimidin-4-yl)-N^4-(4-((dimethylamino)methyl)-4-methylcyclohexyl)-5-(1-methyl-1H-pyrazol-3-yl)pyridine-2,4-diamine], the IC50 was 3600 nM in assay [1] (setting [6]); 7.5 nM in assay [1] (setting [7]); 4.9 nM in assay [2] (setting [8]); 2 nM in assay [2] (setting [9]); 0.6 nM in assay [3] (setting [10]); 0.8 nM in assay [3] (setting [11]). Besides, the IC50 in assay [4] (setting [12]) is 178 nM; in assay [4] (setting [13]), 7.1 nM; in assay [5] (setting [14]), 0.6 nM; in assay [5] (setting [15]) it was 0.4 nM.

For `CN(C)CC[C@H]1CC[C@@H](Nc2cc(Nc3nc(-c4cnn(S(=O)(=O)C5CC5)c4)ncc3F)ncc2-c2ccn(C(F)F)n2)CC1` [Example 325, N^2-(2-(1-(Cyclopropylsulfonyl)-1H-pyrazol-4-yl)-5-fluoropyrimidin-4-yl)-5-(1-(difluoromethyl)-1H-pyrazol-3-yl)-N^4-((1s,4s)-4-(2-(dimethylamino)ethyl)cyclohexyl)pyridine-2,4-diamine], the IC50 was found to be 1.2 nM in assay [1] (setting [7]); 0.6 nM in assay [2] (setting [9]); 0.2 nM in assay [3] (setting [11]); 0.3 nM in assay [4] (setting [13]); 0.1 nM in assay [5] (setting [15]).

In the case of `CN(C)CC1(C)CCC(Nc2cc(Nc3ccnc(-c4cnn(S(=O)(=O)C5CC5)c4)n3)ncc2-c2ccn(CC(F)F)n2)CC1` (stereo not shown) [Example 246, N^2-(2-(1-(Cyclopropylsulfonyl)-1H-pyrazol-4-yl)pyrimidin-4-yl)-5-(1-(2,2-difluoroethyl)-1H-pyrazol-3-yl)-N^4-(4-((dimethylamino)methyl)-4-methylcyclohexyl)pyridine-2,4-diamine], the IC50 in assay [1] (setting [6]) was determined as 4510 nM; in assay [1] (setting [7]), 15.4 nM; in assay [2] (setting [8]) it was 10.2 nM; in assay [2] (setting [9]), 7.1 nM; in assay [3] (setting [10]), 0.9 nM; in assay [3] (setting [11]), 1 nM. Moreover, the IC50 came out at 400 nM in assay [4] (setting [12]), 19.9 nM in assay [4] (setting [13]), 1.1 nM in assay [5] (setting [14]) and 0.3 nM in assay [5] (setting [15]).

With `O=S(=O)(C1CC1)n1cc(-c2nccc(Nc3cc(NCC4CCCC(O)C4)c(-c4ccn(C(F)F)n4)cn3)n2)cn1` (stereo not shown) [Example 32, 3-(((2-((2-(1-(Cyclopropylsulfonyl)-1H-pyrazol-4-yl)pyrimidin-4-yl)amino)-5-(1-(difluoromethyl)-1H-pyrazol-3-yl)pyridin-4-yl)amino)methyl)cyclohexan-1-ol], the IC50 was more than 10000 nM in assay [1] (setting [6]); 18.5 nM in assay [1] (setting [7]); 2.5 nM in assay [2] (setting [8]); 1 nM in assay [2] (setting [9]); 1.6 nM in assay [3] (setting [10]); 0.5 nM in assay [3] (setting [11]). Moreover, the IC50 in assay [4] (setting [12]) came out at 45.2 nM; in assay [4] (setting [13]) it was 1.9 nM; in assay [5] (setting [14]), 2.5 nM; in assay [5] (setting [15]), 0.2 nM.

`Cn1nc(-c2cnc(Nc3ccnc(-c4cnn(S(=O)(=O)C5CC5)c4)n3)cc2N[C@H]2CC[C@@H](C(C)(C)O)CC2)cc1C(F)(F)F` [Example 254, 2-((1s,4s)-4-((2-((2-(1-(Cyclopropylsulfonyl)-1H-pyrazol-4-yl)pyrimidin-4-yl)amino)-5-(1-methyl-5-(trifluoromethyl)-1H-pyrazol-3-yl)pyridin-4-yl)amino)cyclohexyl)propan-2-ol]: the IC50 is more than 10000 nM in assay [1] (setting [6]); 12.9 nM in assay [1] (setting [7]); 6.5 nM in assay [2] (setting [8]); 5.5 nM in assay [2] (setting [9]); 3.9 nM in assay [3] (setting [10]); 3.7 nM in assay [3] (setting [11]). The IC50 in assay [4] (setting [12]) amounted to 33.5 nM; in assay [4] (setting [13]), 18.5 nM; in assay [5] (setting [14]), 6.5 nM; in assay [5] (setting [15]), 1.7 nM.

For the compound `C[C@]1(O)CC[C@@H](Nc2cc(Nc3ccnc(N4CCC[C@H](O)C4)n3)ncc2-c2ccn(C(F)F)n2)CC1` [Example 351, (S)-1-(4-((5-(1-(Difluoromethyl)-1H-pyrazol-3-yl)-4-(((1s,4R)-4-hydroxy-4-methylcyclohexyl)amino)pyridin-2-yl)amino)pyrimidin-2-yl)piperidin-3-ol], the IC50 in assay [1] (setting [16]) was determined as 235 nM; in assay [2] (setting [17]), 198 nM; in assay [3] (setting [18]), 2.7 nM; in assay [4] (setting [19]), 44.3 nM; in assay [5] (setting [20]), 2.8 nM.

In the case of `CN[C@H]1CC[C@@H](Nc2cc(Nc3ccnc(-c4cnn(S(=O)(=O)C5CC5)c4)n3)ncc2-c2csc(C(C)(C)O)n2)CC1` [Example 56, 2-(4-(6-((2-(1-(Cyclopropylsulfonyl)-1H-pyrazol-4-yl)pyrimidin-4-yl)amino)-4-(((1s,4s)-4-(methylamino)cyclohexyl)amino)pyridin-3-yl)thiazol-2-yl)propan-2-ol], the IC50 is more than 10000 nM in assay [1] (setting [6]); 13.2 nM in assay [2] (setting [8]); 0.6 nM in assay [3] (setting [10]); 7.1 nM in assay [4] (setting [12]); 0.8 nM in assay [5] (setting [14]).

For the compound `CC1(O)CCC(Nc2cc(Nc3ccnc(N4CC(CO)C(C)(C)C4)n3)ncc2-c2ccn(C(F)F)n2)CC1` (stereo not shown) [Example 347, (1s,4s)-4-((5-(1-(Difluoromethyl)-1H-pyrazol-3-yl)-2-((2-(4-(hydroxymethyl)-3,3-dimethylpyrrolidin-1-yl)pyrimidin-4-yl)amino)pyridin-4-yl)amino)-1-methylcyclohexan-1-ol], the IC50 in assay [1] (IC50 WT, 100 μM ATP) is more than 10000 nM; in assay [1] (setting [16]) it was 400 nM; in assay [2] (IC50 del19/C797S, 100 μM ATP), 329 nM; in assay [2] (setting [17]), 99 nM; in assay [3] (IC50 del19/T790M/C797S, 100 μM ATP), 3.1 nM; in assay [3] (setting [18]), 1.9 nM. Also, the IC50 in assay [4] (IC50 L858R/C797S, 100 μM ATP) turned out to be 449 nM; in assay [4] (setting [19]), 48.2 nM; in assay [5] (IC50 L858R/T790M/C797S, 100 μM ATP) it was 1.9 nM; in assay [5] (setting [20]), 0.7 nM.

`CN(C)C[C@]1(O)CC[C@@H](Nc2cc(Nc3ccnc(-c4cnn(S(=O)(=O)C5CC5)c4)n3)ncc2-c2ccn(C)n2)CC1` [Example 230, (1s,4s)-4-((2-((2-(1-(Cyclopropylsulfonyl)-1H-pyrazol-4-yl)pyrimidin-4-yl)amino)-5-(1-methyl-1H-pyrazol-3-yl)pyridin-4-yl)amino)-1-((dimethylamino)methyl)cyclohexan-1-ol]: the IC50 in assay [1] (setting [6]) turned out to be 4670 nM; in assay [1] (setting [7]) it was 9.4 nM; in assay [2] (setting [8]), 6 nM; in assay [2] (setting [9]) it was 4.8 nM; in assay [3] (setting [10]), 0.5 nM; in assay [3] (setting [11]), 0.2 nM. In addition, the IC50 came to 33.8 nM in assay [4] (setting [12]), 3.3 nM in assay [4] (setting [13]), 0.5 nM in assay [5] (setting [14]) and 0.2 nM in assay [5] (setting [15]).

For `O=S(=O)(C1CC1)n1cc(-c2nccc(Nc3cc(NC[C@H]4CC[C@@H](O)C4)c(-c4ccn(C(F)F)n4)cn3)n2)cn1` [Example 119, (1R,3S)-3-(((2-((2-(1-(Cyclopropylsulfonyl)-1H-pyrazol-4-yl)pyrimidin-4-yl)amino)-5-(1-(difluoromethyl)-1H-pyrazol-3-yl)pyridin-4-yl)amino)methyl)cyclopentan-1-ol], the IC50 in assay [1] (setting [6]) was more than 10000 nM; in assay [1] (setting [7]), 6.1 nM; in assay [2] (setting [8]), 0.5 nM; in assay [2] (setting [9]) it was 0.5 nM; in assay [3] (setting [10]), 0.4 nM; in assay [3] (setting [11]), 0.4 nM. For the same compound, the IC50 in assay [4] (setting [12]) amounted to 15.1 nM; in assay [4] (setting [13]) it was 0.4 nM; in assay [5] (setting [14]), 0.6 nM; in assay [5] (setting [15]) it was 0.1 nM.

Consider `Cc1nn(CC(F)F)c(C)c1-c1nccc(Nc2cc(N[C@H]3CC[C@@](C)(O)CC3)c(-c3ccn(C(F)F)n3)cn2)n1` [Example 321, (1s,4s)-4-((2-((2-(1-(2,2-Difluoroethyl)-3,5-dimethyl-1H-pyrazol-4-yl)pyrimidin-4-yl)amino)-5-(1-(difluoromethyl)-1H-pyrazol-3-yl)pyridin-4-yl)amino)-1-methylcyclohexan-1-ol], for which the IC50 in assay [1] (setting [7]) worked out at 74.8 nM; in assay [2] (setting [9]) it was 20.2 nM; in assay [3] (setting [11]), 2.8 nM; in assay [4] (setting [13]), 10.4 nM; in assay [5] (setting [15]), 2.3 nM.
